Test [1] is described as follows: Paneling of released fragrance alcohols on glass slides (sensory panel). Here is the method: Evaporation kinetics using 76 mm×51 mm glass slides was carried out. Prazitherm precision hotplate was pre-heated to 32 degrees Celsius for 30 minutes. Three glass slides were placed on the precision hotplate. Each glass slide is labeled with a unique code so that its identity is unknown to the panelists. Using a Gilson Microman M25 positive displacement pipette, […] of 0.1 LU lipase solution was dosed directly to the center of one of the glass slides. Then 20 μl of 1% (2E,6Z)-nona-2,6-dien-1-yl hexadecanoate was dosed very slowly to the lipase droplet. Once all the sample solution was applied onto the glass slide, the applied glass slide was evaporated on the precision hotplate for 4 hours at 32 degrees Celsius. Sample preparation for 1% (Z)-3-hexen-1-yl hexadecanoate solution and 1% 3,7-dimethyl-2,6-octadien-1-yl hexadecanoate solution were done the same way. Sample preparations for all three solutions were repeated for duplicates to replace each glass slide twice during the sensory panel period—the limit for a glass slide sample set (with 3 different glass slide samples) was 10 evaluations. At the 4-hour time interval, a spray bottle filled with deionized water was primed and then water was sprayed directly onto each glass slide once. One spray was enough to cover the glass slide. All glass slides were allowed to sit for 10 minutes before the sensory panel so the water was absorbed by the evaporated mixtures to represent humidity on skin. For evaluation, the panelist picks up the treated glass slides, smells the center and rates the intensity of each slide on an evaluation sheet.
In one test, the panelists rated odor intensity on a scale of 1 to 7 for each glass slide evaluated under release by the hydrolase at time 4 hours. The second approach was the so-called forced choice where panelists were forced to select the most intense out of the three […] after release with the Hydrolase at 4 hours at 0.1 LU/ml.

For test [2], the system named is Hydrolase (Lipase solution 0.100 LU/ml). In words: Fragrance evolution on Tzero lids (dynamic headspace), palmitate esters. The format is biochemical. Here is the method: To further investigate the release kinetics of palmitate esters in the presence of hydrolases, an in-vitro assay measuring the functional perfume ingredient in the gaseous phase was devised.
Three palmitate esters releasing respectively (2E,6Z)-nona-2,6-dien-1-ol (corresponding to invention's compound) and 3,7-dimethyl-2,6-octadien-1-ol (corresponding to comparative compound) were tested in the presence of physiologically relevant concentration of Hydrolase (0.1 LU/ml) as follows. 2.5 ul Lipase solution (0.100 LU/ml) was added to Tzero Lids TA [Part no. 901671.901] crucibles. 2.5 ul of 0%, […], 0.1%, […] and 1% solution in ethanol of palmitate esters were added to the same crucibles and placed on preheated precision hotplate to 32C. Additional aliquots of 2.5 ul water were added to the crucibles at 1 h and 4 h to simulate humidity on skin and facilitate hydrolysis. The crucibles were transferred to 20 ml headspace vials after […] at 32C.
Analysis performed by Dynamic Headspace using Tenax TA trap outlined as follows. GC-MS-DHS analyses were performed on an Agilent Gas Chromatograph system 7890B coupled to an Agilent Mass Selective Detector 5977B and equipped with a Gerstel MPS autosampler. […]

Test [3] relates to lipase enzyme (Enzyme Innovation Addclean LP L). As to the kind of experiment: Reaction rate measurement in solution in the presence of a hydrolase (GC/MS). The format is biochemical. The procedure:
The release kinetics of 3,7-dimethyl-2,6-octadien-1-yl hexadecanoate (comparative compound) and (2E,6Z)-nona-2,6-dien-1-yl hexadecanoate (invention's compound) in the presence of a hydrolase were compared.
In order to compare the reaction rate of the esters, the amount of 3,7-dimethyl-2,6-octadien-1-yl hexadecanoate and (2E,6Z)-nona-2,6-dien-1-yl hexadecanoate and the amount of ethyl hexadecanoate over time were measured by GC/MS. The ethyl hexadecanoate was formed by the reaction between the hexadecanoic acid released and the ethanol.
Enzyme Solution Preparation: The lipase enzyme source used was Enzyme Innovation Addclean LP L at an activity of 20000 Lipase Units/g. A stock solution of 100 LU/ml was prepared and diluted in serial dilution to working concentrations as follows:
The solutions comprising 3,7-dimethyl-2,6-octadien-1-yl hexadecanoate or (2E,6Z)-nona-2,6-dien-1-yl hexadecanoate (also called palmitate ester solutions) were prepared by dissolving in ethanol to 5% by weight. These were subsequently diluted to working conditions of the experiment.
In a 2 ml Agilent GC vial (Agilent 5183-2068), 50 ul of 100 LU/ml solution was added with a micropipette. 100 ul deionized water was added to ensure continued hydrolysis. Samples to were prepared for each time condition, replicate, and palmitate ester solutions of interest because the reaction will be stopped and only measured once at 0 hours, 0.5 hours and 1 hour. […]
The palmitate esters were prepared by dissolving in ethanol to 5% by weight (stock). Palmitate ester solution was further diluted to 0.2% and 50 ul added to all sample vials above and recorded as time zero. […] Samples were analyzed by GC/MS direct injection methodology as follows.
GC-MS analyses were performed on an Agilent Gas Chromatograph system 7890B coupled to an Agilent Mass Selective Detector 5977B and equipped with a Gerstel MPS autosampler or equivalent. […] External calibration curves of (2E,6Z)-nona-2,6-dien-1-yl hexadecanoate and 3,7-dimethyl-2,6-octadien-1-yl hexadecanoate were prepared at 10-500 ppm was prepared and sample signal quantified in ppm.

Test [4] relates to Hydrolase (Lipase solution 0.100 LU/ml). As to the kind of experiment: Fragrance evolution on Tzero lids (dynamic headspace) in a personal care base. The format is biochemical. The following applies: day cream base O/W emulsion with 1 wt% compound, absence of hydrolase (water control), 32C, 4 hours. Here is the method:
To confirm fragrance release in presence of personal care base, personal care base was formulated with invention's compound and analyzed by an in-vitro assay measuring the functional perfume ingredient in the gaseous phase.
Testing was done in the presence of physiologically relevant concentration of Hydrolase (0.1 LU/ml) as follows. […] 901671.901] crucibles. 2.5 ul of personal care base with (2E,6Z)-nona-2,6-dien-1-yl hexadecanoate was added to the same crucibles and placed on preheated precision hotplate to 32C. Additional aliquots of 2.5 ul water were added to the crucibles at 1 h and 4 h to simulate humidity on skin and facilitate hydrolysis. The crucibles were transferred to 20 ml headspace vials after 4 hours at 32C.
Analysis performed by Dynamic Headspace using Tenax TA trap outlined as follows. GC-MS-DHS analyses were performed on an Agilent Gas Chromatograph system 7890B coupled to an Agilent Mass Selective Detector 5977B and equipped with a Gerstel MPS autosampler. Additionally equipment of automated Gerstel Dynamic Headspace System, ATEX air sampling tube gripper for 20 mL headspace vials with a metal screw cap (preassembled with 1.3 mm PTFE septa) and Gerstel CIS 4C cryostatic cooling device CCD2 (Inlet 2) mounted with Gerstel TDU2 thermal desorption unit. […]

The mark [5] stands for this setting: glass slide, 0.1 LU/ml lipase, 4 hours.

Structures are written as SMILES.

Turning to `CC/C=C\CCOC(=O)CCCCCCCCCCCCCCC` [(Z)-3-hexen-1-yl hexadecanoate, reference compound], the “perception / impression by the panelists” value in test [1] (setting [5]) is recorded as “not well perceived by the panelists”. Also, the “release rate compared with 3,7-dimethyl-2,6-octadien-1-yl hexadecanoate” value in test [2] (stated in Example 6, test not named) is “release faster than 3,7-dimethyl-2,6-octadien-1-yl hexadecanoate”.

On to `CC/C=C\CC/C=C/COC(=O)CCCCCCCCCCCCCCC` [(2E,6Z)-nona-2,6-dien-1-yl hexadecanoate], for which the “total rate of lipase-catalyzed reaction” value in test [3] (compared with 3,7-dimethyl-2,6-octadien-1-yl hexadecanoate) is on record as “higher total rate of lipase-catalyzed reaction”. For the same compound, the “concentration of the ester in solution in function of time” value in test [3] (lipase 100 LU/ml solution, 32C, 0, 0.5 and 1 hour, GC/MS, compared with 3,7-dimethyl-2,6-octadien-1-yl hexadecanoate (FIG. 1)) is reported as “decreased more rapid than the concentration of 3,7-dimethyl-2,6-octadien-1-yl hexadecanoate”. In addition, the “release of the alcohol, confirmed by increase of ethyl hexadecanoate” value in test [3] (lipase, ethanol present, 32C, up to 1 hour, compared with 3,7-dimethyl-2,6-octadien-1-ol (FIG. 2)) was “faster release of (2E,6Z)-nona-2,6-dien-1-ol compared to 3,7-dimethyl-2,6-octadien-1-ol”. In addition, the “odor intensity rated by panelists on a scale of 1 to 7” value in test [1] (1% solution on glass slide, 0.1 LU/ml lipase, 4 hours at 32 degrees Celsius, versus the two other hexadecanoates (FIG. 6)) is given as “significantly more intense”. In addition, the “perception / impression by the panelists” value in test [1] (setting [5]) is recorded as “the most intense impression”. The “forced choice: panelists who selected the sample as the most intense” value in test [1] (glass slide, Hydrolase 0.1 LU/ml, 4 hours, three esters compared (FIG. 7)) is recorded as 20/21. Moreover, the “release of (2E,6Z)-nona-2,6-dien-1-ol in headspace from personal care base” value in test [4] is recorded as “no release is observed”. In addition, the “rate of release of fragrance material into headspace” value in test [2] (Hydrolase 0.1 LU/ml, 32C, 4 hours, on Tzero lids (FIG. 3)) was “higher rate than 3,7-dimethyl-2,6-octadien-1-yl hexadecanoate”.

These data come from patent US12642756B2, “Leave-on composition” (Firmenich SA, priority 2020, dated 2026).
